Publication PMC6150173, “Tryptophan-Containing Cyclic Decapeptides with Activity against Plant Pathogenic Bacteria” (Molecules : A Journal of Synthetic Chemistry and Natural …, 2017)
Peptide text beside a SMILES is read from it.

Legend:
Type in all cases: cell-based
[1] = tested on: Pseudomonas syringae pv. syringae EPS94; assay: Antibacterial activity (MIC), in vitro growth inhibition; conditions: Table S1, MIC range
Procedure, shortened: (§1)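 MIC determined by in vitro growth inhibition across 0.8, 1.6, 3.1, 6.2, 12.5, 25 and 50 μM peptide. Strains tested: E. amylovora PMV6076, P. syringae pv. syringae EPS94 and X. axonopodis pv. vesicatoria 2133-2.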

[2] = tested on: Erwinia amylovora PMV6076; assay: as above; conditions: Table S1, MIC range
Procedure, shortened: as §1

[3] = tested on: erythrocyte suspensions of human blood; assay: Hemolytic activity, hemoglobin release; conditions: human blood erythrocytes 5% v/v, absorbance 540 nm, percentage compared to melittin, three replicates; for Hemolysis (%) at 50 µM: peptide 50 μM (table prints 50 µM); for Hemolysis (%) at 125 µM: peptide 125 μM (table prints 125 µM)
Procedure: The hemolytic activity of the compounds was evaluated at 50 and 125 μM by determining hemoglobin release from erythrocyte suspensions of human blood (5% v/v) (Oxoid) using absorbance at 540 nm, as previously described. Three replicates for each peptide concentration were used.

[4] = tested on: Xanthomonas axonopodis pv. vesicatoria 2133-2; conditions: Table S1, MIC range
Procedure, shortened: as §1

| SMILES | MIC Pss [1] | MIC Ea [2] | Hemolysis (%) at 50 µM [3] | Hemolysis (%) at 125 µM [3] | MIC Xav [4] |
| --- | --- | --- | --- | --- | --- |
| CC(C)C[C@@H]1NC(=O)[C@H](CCCCN)NC(=O)[C@H](Cc2c[nH]c3ccccc23)NC(=O)[C@H](CCCCN)NC(=O)[C@H](CCCCN)NC(=O)[C@H](CCCCN)NC(=O)[C@H](CC(C)C)NC(=O)[C@H](CC(C)C)NC(=O)[C@H](CCC(N)=O)NC(=O)[C@H](CCCCN)NC1=O [BPC126W, c(LLKKKWKLKQ)] (cyclo(KKKWKLKQLL)) | 6.2 to 12.5 µM | 25 to 50 µM | 5% | 9% | 1.6 to 3.1 µM |
| CC(C)C[C@@H]1NC(=O)[C@H](CCCCN)NC(=O)[C@H](CCCCN)NC(=O)[C@H](CCCCN)NC(=O)[C@H](CCC(N)=O)NC(=O)[C@H](CCCCN)NC(=O)[C@H](CCCCN)NC(=O)[C@H](CC(C)C)NC(=O)[C@H](Cc2c[nH]c3ccccc23)NC(=O)[C@H](CC(C)C)NC1=O [BPC128W, c(KKKLLWLKKQ)] (cyclo(KKKLLWLKKQ)) | 6.2 to 12.5 µM | 12.5 to 25 µM | 2% | 2% | 1.6 to 3.1 µM |
| CC(C)C[C@@H]1NC(=O)[C@H](CCCCN)NC(=O)[C@H](CCCCN)NC(=O)[C@H](CCC(N)=O)NC(=O)[C@H](CCCCN)NC(=O)[C@H](CCCCN)NC(=O)[C@H](CC(C)C)NC(=O)[C@H](Cc2c[nH]c3ccccc23)NC(=O)[C@H](CC(C)C)NC(=O)[C@H](CCCCN)NC1=O [BPC130W, c(KKLKLWLKKQ)] (cyclo(KKLKLWLKKQ)) | 6.2 to 12.5 µM | 12.5 to 25 µM | 1% | 2% | 1.6 to 3.1 µM |
| CC(C)C[C@@H]1NC(=O)[C@H](CCCCN)NC(=O)[C@H](CCC(N)=O)NC(=O)[C@H](CCCCN)NC(=O)[C@H](CCCCN)NC(=O)[C@H](CC(C)C)NC(=O)[C@H](Cc2c[nH]c3ccccc23)NC(=O)[C@H](CC(C)C)NC(=O)[C@H](CCCCN)NC(=O)[C@H](CCCCN)NC1=O [BPC132W, c(KLKKLWLKKQ)] (cyclo(KKLWLKKQKL)) | 3.1 to 6.2 µM | 12.5 to 25 µM | 5% | 8% and below 20% | 1.6 to 3.1 µM |
| CC(C)C[C@@H]1NC(=O)[C@H](CCC(N)=O)NC(=O)[C@H](CCCCN)NC(=O)[C@H](CCCCN)NC(=O)[C@H](CC(C)C)NC(=O)[C@H](Cc2c[nH]c3ccccc23)NC(=O)[C@H](CC(C)C)NC(=O)[C@H](CCCCN)NC(=O)[C@H](CCCCN)NC(=O)[C@H](CCCCN)NC1=O [BPC134W, c(LKKKLWLKKQ)] (cyclo(KKKLWLKKQL)) | 6.2 to 12.5 µM | 25 to 50 µM | 3% | 4% | 3.1 to 6.2 µM |
| CC(C)C[C@@H]1NC(=O)[C@H](CCCCN)NC(=O)[C@H](CCCCN)NC(=O)[C@H](CCC(N)=O)NC(=O)[C@H](CCCCN)NC(=O)[C@H](CCCCN)NC(=O)[C@H](CC(C)C)NC(=O)[C@H](Cc2c[nH]c3ccccc23)NC(=O)[C@H](CCCCN)NC(=O)[C@H](CC(C)C)NC1=O [BPC136W, c(KKLLKWLKKQ)] (cyclo(KKLLKWLKKQ)) | 6.2 to 12.5 µM | 6.2 to 12.5 µM | 1% | 2% | 3.1 to 6.2 µM |
| CC(C)C[C@@H]1NC(=O)[C@H](CCCCN)NC(=O)[C@H](CC(C)C)NC(=O)[C@H](CCCCN)NC(=O)[C@H](CCC(N)=O)NC(=O)[C@H](CCCCN)NC(=O)[C@H](CCCCN)NC(=O)[C@H](CC(C)C)NC(=O)[C@H](Cc2c[nH]c3ccccc23)NC(=O)[C@H](CCCCN)NC1=O [BPC138W, c(KLKLKWLKKQ)] (cyclo(KKQKLKLKWL)) | 6.2 to 12.5 µM | 25 to 50 µM | 7% | 14% | 3.1 to 6.2 µM |
| CC(C)C[C@@H]1NC(=O)[C@H](CCC(N)=O)NC(=O)[C@H](CCCCN)NC(=O)[C@H](CCCCN)NC(=O)[C@H](CC(C)C)NC(=O)[C@H](Cc2c[nH]c3ccccc23)NC(=O)[C@H](CCCCN)NC(=O)[C@H](CC(C)C)NC(=O)[C@H](CCCCN)NC(=O)[C@H](CCCCN)NC1=O [BPC140W, c(LKKLKWLKKQ)] (cyclo(KKLKWLKKQL)) | 6.2 to 12.5 µM | 12.5 to 25 µM | 31% | 37% | 3.1 to 6.2 µM |
| CC(C)C[C@@H]1NC(=O)[C@H](CCCCN)NC(=O)[C@H](CCC(N)=O)NC(=O)[C@H](CCCCN)NC(=O)[C@H](CCCCN)NC(=O)[C@H](CC(C)C)NC(=O)[C@H](Cc2c[nH]c3ccccc23)NC(=O)[C@H](CCCCN)NC(=O)[C@H](CCCCN)NC(=O)[C@H](CC(C)C)NC1=O [BPC142W, c(KLLKKWLKKQ)] (cyclo(KKQKLLKKWL)) | 6.2 to 12.5 µM | 12.5 to 25 µM | 16% | 18% | 3.1 to 6.2 µM |
| CC(C)C[C@@H]1NC(=O)[C@H](CCCCN)NC(=O)[C@H](CC(C)C)NC(=O)[C@H](CCC(N)=O)NC(=O)[C@H](CCCCN)NC(=O)[C@H](CCCCN)NC(=O)[C@H](CC(C)C)NC(=O)[C@H](Cc2c[nH]c3ccccc23)NC(=O)[C@H](CCCCN)NC(=O)[C@H](CCCCN)NC1=O [BPC144W, c(LKLKKWLKKQ)] (cyclo(KKQLKLKKWL)) | 3.1 to 6.2 µM | 12.5 to 25 µM | 16% | 21% | 1.6 to 3.1 µM |
| CC(C)C[C@@H]1NC(=O)[C@H](CCC(N)=O)NC(=O)[C@H](CCCCN)NC(=O)[C@H](CCCCN)NC(=O)[C@H](CC(C)C)NC(=O)[C@H](Cc2c[nH]c3ccccc23)NC(=O)[C@H](CCCCN)NC(=O)[C@H](CCCCN)NC(=O)[C@H](CCCCN)NC(=O)[C@H](CC(C)C)NC1=O [BPC146W, c(LLKKKWLKKQ)] (cyclo(KKKWLKKQLL)) | 3.1 to 6.2 µM | 25 to 50 µM | 4% | 7% | 3.1 to 6.2 µM |
| CC(C)C[C@@H]1NC(=O)[C@H](CCCCN)NC(=O)[C@H](CC(C)C)NC(=O)[C@H](CC(C)C)NC(=O)[C@H](CCCCN)NC(=O)[C@H](CCC(N)=O)NC(=O)[C@H](CCCCN)NC(=O)[C@H](CCCCN)NC(=O)[C@H](CCCCN)NC(=O)[C@H](Cc2c[nH]c3ccccc23)NC1=O [BPC154W, c(KLLKLWKKKQ)] (cyclo(KKKQKLLKLW)) | 3.1 to 6.2 µM | 25 to 50 µM | 4% | 7% | 1.6 to 3.1 µM |
| CC(C)C[C@@H]1NC(=O)[C@H](CCCCN)NC(=O)[C@H](CCCCN)NC(=O)[C@H](CC(C)C)NC(=O)[C@H](CC(C)C)NC(=O)[C@H](CCC(N)=O)NC(=O)[C@H](CCCCN)NC(=O)[C@H](CCCCN)NC(=O)[C@H](CCCCN)NC(=O)[C@H](Cc2c[nH]c3ccccc23)NC1=O [BPC158W, c(LLKKLWKKKQ)] (cyclo(KKKQLLKKLW)) | 12.5 to 25 µM | 12.5 to 25 µM | 10% | 14% | 1.6 to 3.1 µM |
| CC(C)C[C@@H]1NC(=O)[C@H](CCCCN)NC(=O)[C@H](CCCCN)NC(=O)[C@H](Cc2c[nH]c3ccccc23)NC(=O)[C@H](CCCCN)NC(=O)[C@H](CC(C)C)NC(=O)[C@H](CC(C)C)NC(=O)[C@H](CC(C)C)NC(=O)[C@H](CCCCN)NC(=O)[C@H](CCC(N)=O)NC1=O [BPC184W, c(KLLLKWKKLQ)] (cyclo(KKLQKLLLKW)) | 3.1 to 6.2 µM | 25 to 50 µM | 22% | 32% | 1.6 to 3.1 µM |
| CC(C)C[C@@H]1NC(=O)[C@H](CCCCN)NC(=O)[C@H](CCCCN)NC(=O)[C@H](Cc2c[nH]c3ccccc23)NC(=O)[C@H](CCCCN)NC(=O)[C@H](CC(C)C)NC(=O)[C@H](CC(C)C)NC(=O)[C@H](CCCCN)NC(=O)[C@H](CC(C)C)NC(=O)[C@H](CCC(N)=O)NC1=O [BPC192W, c(LKLLKWKKLQ)] (cyclo(KKLQLKLLKW)) | 12.5 to 25 µM | 25 to 50 µM | 13% | 17% | 6.2 to 12.5 µM |
| CC(C)C[C@@H]1NC(=O)[C@H](CCCCN)NC(=O)[C@H](CCCCN)NC(=O)[C@H](CCC(N)=O)NC(=O)[C@H](CC(C)C)NC(=O)[C@H](CCCCN)NC(=O)[C@H](CCCCN)NC(=O)[C@H](Cc2c[nH]c3ccccc23)NC(=O)[C@H](CCCCN)NC(=O)[C@H](CCCCN)NC1=O [BPC194W, c(KKLKKWKKLQ)] (cyclo(KKLKKWKKLQ)) | 12.5 to 25 µM | 12.5 to 25 µM | 3% | 5% | 6.2 to 12.5 µM |
| CC(C)C[C@@H]1NC(=O)[C@H](CCCCN)NC(=O)[C@H](CCCCN)NC(=O)[C@H](Cc2c[nH]c3ccccc23)NC(=O)[C@H](CCCCN)NC(=O)[C@H](CCCCN)NC(=O)[C@H](CCCCN)NC(=O)[C@H](CC(C)C)NC(=O)[C@H](CCCCN)NC(=O)[C@H](CCC(N)=O)NC1=O [BPC198W, c(KLKKKWKKLQ)] (cyclo(KKKWKKLQKL)) | 25 to 50 µM | 25 to 50 µM | 2% | 4% | 3.1 to 6.2 µM |
